Among the test systems are OVCAR-3 ovarian; SK-OV-3 ovarian; SF-539 CNS; MDA-MB-435; PC-3 prostate; HOP-62 NSCLC; SR leukemia; COLO 205 colon; HL-60(TB) leukemia; IGROV1 ovarian.
Holding throughout (test): NCI-60 cell line screen, 48 h

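Protocol summary: plate cells (96-well), add compound at 5 concentrations, incubate 48 h, interpolate endpoints linearly. Abbreviation: GI50, concentration required for 50% inhibition of growth. TGI marks complete inhibition of growth.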

As for `O=c1[nH]c(=O)n(C2CC(O)C(COP(=O)(OCc3ccc([N+](=O)[O-])o3)N(CCCCCl)CC(O)CO)O2)cc1F` (configuration not stated), the GI50 in the experiment with OVCAR-3 ovarian is 0.39 µM; with SK-OV-3 ovarian it was over 100 µM; with SF-539 CNS it was under 0.0348 µM; in the experiment on MDA-MB-435, 1.26 µM; with PC-3 prostate it was 0.154 µM; in the experiment with HOP-62 NSCLC, 0.412 µM. The figures for the GI50 in the experiment with SR leukemia, with COLO 205 colon and in the experiment on HL-60(TB) leukemia were under 0.0269 µM, over 22.5 µM and 0.0262 µM, respectively. In addition, the TGI in the experiment with SK-OV-3 ovarian is over 100 µM; with MDA-MB-435 it was over 100 µM; in the experiment on PC-3 prostate, over 100 µM; with HOP-62 NSCLC, over 26.2 µM; in the experiment with SR leukemia it was over 100 µM; in the experiment on COLO 205 colon it was over 100 µM. Moreover, in the experiment with HL-60(TB) leukemia, the TGI is over 100 µM.

Take `C1CCC([PH+](C2CCCCC2)C2CCCCC2[PH+](C2CCCCC2)C2CCCCC2)CC1.[Au].[CH-]1CCCCC1CC1CCCC[N-]1` (configuration not stated): the GI50 was 0.318 µM with OVCAR-3 ovarian; 0.355 µM with SK-OV-3 ovarian; 0.355 µM in the experiment with SF-539 CNS; 0.286 µM with MDA-MB-435; 0.283 µM with PC-3 prostate; 0.349 µM in the experiment with HOP-62 NSCLC. Besides, the GI50 is 0.262 µM in the experiment on COLO 205 colon and 0.277 µM with HL-60(TB) leukemia. For the same compound, the TGI in the experiment with OVCAR-3 ovarian amounted to 1.2 µM; in the experiment on SK-OV-3 ovarian, 1.36 µM; in the experiment with SF-539 CNS it was 1.41 µM; in the experiment with MDA-MB-435, 1.01 µM; with PC-3 prostate, 1.93 µM; with HOP-62 NSCLC, 2.58 µM. Moreover, the TGI with COLO 205 colon was 0.696 µM; with HL-60(TB) leukemia, 0.833 µM.

On to `COc1ccc(-c2[nH]c3ccccc3c2-c2ccc(OC)cc2)cc1`, for which the GI50 in the experiment with OVCAR-3 ovarian was 2.18 µM; in the experiment on SK-OV-3 ovarian it was 5.85 µM; with IGROV1 ovarian, 11.2 µM; with SF-539 CNS, 3.05 µM; with MDA-MB-435 it was 1.79 µM; in the experiment with PC-3 prostate, 4.07 µM. In addition, the GI50 in the experiment with HOP-62 NSCLC was 10.2 µM; in the experiment with COLO 205 colon, 4.13 µM; with HL-60(TB) leukemia, 2.03 µM. The TGI in the experiment on OVCAR-3 ovarian amounted to 5.27 µM; in the experiment with SK-OV-3 ovarian it was 26.6 µM; in the experiment with IGROV1 ovarian, 27.5 µM; in the experiment on SF-539 CNS, 10.4 µM; in the experiment with MDA-MB-435, 4.58 µM; with PC-3 prostate, 25.3 µM. The TGI in the experiment on HOP-62 NSCLC stood at 26.2 µM; in the experiment with COLO 205 colon, 16.8 µM; in the experiment on HL-60(TB) leukemia it was 6.03 µM.

With `O=C1c2cccnc2C(=O)c2c1c(C(=O)NCCCN1CCCCC1)c1ccccn21`, the GI50 in the experiment with OVCAR-3 ovarian is 0.321 µM; with SK-OV-3 ovarian, 2.06 µM; with IGROV1 ovarian, 1.23 µM; in the experiment with SF-539 CNS, 1.47 µM; in the experiment on MDA-MB-435 it was 0.403 µM; in the experiment on PC-3 prostate, 1.49 µM. Also, the GI50 is 1.08 µM in the experiment on HOP-62 NSCLC, 0.474 µM with SR leukemia and 0.268 µM in the experiment on COLO 205 colon. Moreover, the TGI with OVCAR-3 ovarian was 1.75 µM; in the experiment with SK-OV-3 ovarian, 6.7 µM; in the experiment on IGROV1 ovarian it was 3.62 µM; with SF-539 CNS, 3.07 µM; in the experiment with MDA-MB-435, 1.52 µM; with PC-3 prostate, 7.21 µM. Also, the figures for the TGI with HOP-62 NSCLC, with SR leukemia and with COLO 205 colon were 3.18 µM, over 100 µM and 0.928 µM, respectively.

As to `CO[C@H]1CC(O[C@@H]2/C(C)=C/C[C@@H]3C[C@@H](C[C@]4(C=C[C@H](C)[C@@H](C5CCCCC5)O4)O3)OC(=O)[C@@H]3C=C(C)[C@@H](O)[C@H]4OC/C(=C\C=C\[C@@H]2C)[C@]43O)O[C@@H](C)C1O[C@H]1C[C@H](OC)[C@@H](O)[C@H](C)O1` (some centres not stated), the GI50 was 1.66 µM in the experiment on OVCAR-3 ovarian; 1.97 µM with SK-OV-3 ovarian; 1.57 µM in the experiment on MDA-MB-435; 1.08 µM with PC-3 prostate; 1.73 µM with HOP-62 NSCLC; 1.86 µM with SR leukemia. For the same compound, the GI50 in the experiment on COLO 205 colon is 2.03 µM. Also, the TGI in the experiment with OVCAR-3 ovarian is 3.12 µM; with SK-OV-3 ovarian it was 3.61 µM; in the experiment on MDA-MB-435 it was 3.13 µM; in the experiment on PC-3 prostate it was 2.68 µM; with HOP-62 NSCLC, 3.22 µM; in the experiment on SR leukemia, 4.62 µM. For the same compound, the TGI in the experiment with COLO 205 colon stood at 3.71 µM.

Take `C/C(=C\c1ccc2ccccc2c1)[N+](=O)[O-]`: the GI50 with OVCAR-3 ovarian is 1.91 µM; in the experiment with SK-OV-3 ovarian, 14.8 µM; with SF-539 CNS it was 1.64 µM; with MDA-MB-435, 1.81 µM; in the experiment with PC-3 prostate it was 1.89 µM; in the experiment on HOP-62 NSCLC it was 2.31 µM. The GI50 with SR leukemia is 0.409 µM; in the experiment with COLO 205 colon, 2.07 µM; in the experiment on HL-60(TB) leukemia it was 2.03 µM. The TGI in the experiment with OVCAR-3 ovarian is 3.37 µM; in the experiment on SK-OV-3 ovarian it was 28.7 µM; in the experiment on SF-539 CNS it was 3.07 µM; with MDA-MB-435 it was 3.6 µM; in the experiment on PC-3 prostate it was 3.89 µM; with HOP-62 NSCLC, 5.49 µM. Further, the TGI in the experiment on SR leukemia came to 2.56 µM; in the experiment with COLO 205 colon it was 4.36 µM; with HL-60(TB) leukemia it was 5.49 µM.

As for `COc1cc2c(cc1C1COc3cc4occc4cc3C1=O)OCO2` (configuration not stated), the TGI in the experiment with OVCAR-3 ovarian, with SK-OV-3 ovarian, in the experiment on IGROV1 ovarian, with SF-539 CNS, in the experiment on MDA-MB-435 and in the experiment on PC-3 prostate was over 100 µM throughout. Besides, the TGI with HOP-62 NSCLC, in the experiment with SR leukemia and with COLO 205 colon was over 100 µM throughout.

Consider `Cc1cc(S(=O)(=O)/N=C(/N)Nc2ccccc2O)c(SCc2ccccc2)cc1Cl`, for which the GI50 with OVCAR-3 ovarian was 14.5 µM; in the experiment with IGROV1 ovarian, 11 µM; in the experiment with SF-539 CNS, 10.4 µM; in the experiment on MDA-MB-435, 13.5 µM; with PC-3 prostate it was 13.9 µM; with HOP-62 NSCLC it was 20.7 µM. Also, the figures for the GI50 with SR leukemia, in the experiment on COLO 205 colon and in the experiment with HL-60(TB) leukemia were 5.79 µM, 23 µM and 4.22 µM, respectively. The TGI in the experiment on OVCAR-3 ovarian stood at 34.1 µM; with IGROV1 ovarian, 26.9 µM; with SF-539 CNS it was 24.7 µM; with MDA-MB-435 it was 32 µM; in the experiment on PC-3 prostate, 32.4 µM; with HOP-62 NSCLC, 37.3 µM. The TGI with SR leukemia is over 100 µM; with COLO 205 colon, 47.8 µM; in the experiment on HL-60(TB) leukemia it was over 100 µM.

For the origin of these results see PubChem BioAssay (NCI).
